One assay concerns S1P receptor. As to conditions: with the exception of S1P2; by stable internalization; cited from earlier work.
The next assay deals with tumor transplant model. The settings on record: in vivo; cited from earlier work.
In assay [1] the test system is MDA-MB-231 cells. The assay can be described thus: Tamoxifen toxicity, cell viability by phase contrast microscopy. In kind it is cell-based, human. As for the experimental part:
The experiment can be performed first without a S1P antagonist. MDA-MB-231 cells are cultured under standard conditions in […] supplemented with 10% fetal bovine serum and glutamate. Cells are grown in the absence of serum for 24 hours prior to experimental manipulation. Tamoxifen (Tam) and S1P are added to the media at the indicated concentrations for the indicated times at the appropriate concentrations (e.g., 3 μM Tam, 10 μM Tam, and 20 μM Tam) for appropriate times (e.g., 6 hrs. and 24 hrs.). Cell viability is observed by direct illumination with an inverted phase contrast microscope.
The tamoxifen toxicity experiment can be performed using an antagonist of S1P that binds to S1P3. For example, the antiserum described in Example 1 can be employed. MDA-MB-231 cells are cultured under standard conditions in Dulbecco's Minimal Essential Media supplemented with 10% fetal bovine serum and glutamate. Serum concentration is reduced to 1% for 24 hours prior to experimental manipulation. Tamoxifen and S1P are added to the media at the appropriate concentrations (e.g., 0 μM Tam, 10 μM Tam, and 20 μM Tam) for appropriate times (e.g., 6 hrs. and 24 hrs.). Cell viability is observed by direct illumination with an inverted phase contrast microscope.

The subject of assay [2] is MDA-MB-231 breast cancer cells. As to the kind of experiment: S1P-induced cytoskeletal rearrangement / cell rounding. In kind it is cell-based, human. As to the method: MDA-MB-231 breast cancer cells are cultured on collagen-coated coverslips in the presence of 10% FBS using standard techniques. Because S1P is present at high concentrations in serum, BCCs are “serum-starved” in Dulbecco's modified Eagle medium (DMEM) for 12 hours prior to experimental manipulation. S1P is solubilized with bovine serum albumin (BSA) carrier and administered at a final concentration of 1 nM to 1 μM. Coverslips are collected at representative time points such as 10 minutes, 1 hr., 2 hrs., 4 hrs., and 6 hrs., fixed with 4% paraformaldehyde, and stained with rhodamine-conjugated phalloidin to label cytoskeletal actin.
The cell rounding experiment can be performed using an antagonist of S1P that binds to S1P3. […] Serum-starved MDA-MB-231 cells are incubated with preimmune serum or S1P3-reactive antiserum for 15 minutes prior to a 30-minute exposure to 10 nM S1P, then evaluated for response both in % cells responding and average cell area.
MDA-MB-231 cells are grown under standard culture conditions and serum starved for 24 hours prior to experimental manipulation. […] 30 minutes after S1P administration, cells are fixed with 4% paraformaldehyde, stained with rhodamine-conjugated phalloidin, and visualized with fluorescence microscopy. Rounded cells are counted by an experimenter blinded to the identity of the sample. Cell area is determined by quantification with imageJ software.

In the next assay the test system is MCF-7 cells. As to the kind of experiment: Cell death by annexin V assay. In kind it is cell-based, human. As for the experimental part: Quantification of cell death can be performed with an annexin V assay. Serum-starved cells can be treated overnight with […] tamoxifen in the presence or absence of 500 nM S1P, then collected by trypsinization, and labeled with Alexafluor 488-conjugated annexin V (Invitrogen Corp, Carlsbad, Calif.) per manufacturer's protocol. Cells can be counted on a FACSAria cell sorting system and analyzed with FACSDiva software (BD Biosciences, San Jose, Calif.). […] This effect is attenuated by co-administration of 500 nM S1P.

In assay [3] the test system is MDA-MB-231 cells. As to the kind of experiment: Cell motility, modified Boyden's chamber assay. In kind it is cell-based, human. As to conditions: 1 μM S1P; two hour time point. As to the method: Cell motility is determined using a modified Boyden's chamber assay. MDA-MB-231 cells are introduced into the upper wells of collagen-coated chambers in serum-free DMEM and incubated for 30 minutes before the addition of either 1 μM S1P in BSA or BSA alone. At the indicated times, wells are isolated and fixed with 4% paraformaldehyde before non-migrated cells in the upper well are removed with a cotton swab. Membranes are then stained with DAPI to visualize individual migrated cells on the bottom of the membranes. Results shown are the averages of three independent experiments. Determination of the effect of S1P3 blocking antibodies on the migration of cancer cells can be performed as follows. The effect of S1P3 blocking antibodies is determined using a modified Boyden chamber assay as described above. In this case, an appropriate cell line (such as […]) is seeded into the upper chamber of the transwell and pre-treated with a blocking antibody or control antibody. […] Cells are then fixed and counted as described above. The anti-migratory effect of the blocking antibody is determined by comparing the number of migrated cells in the presence of the antibody to the number of migrated cells in the presence of an appropriate control antibody under the same stimulatory conditions.

On to `CCCCCCCCc1ccc(CCC(N)(CO)CO)cc1` [FTY720], for which the “inhibition of S1P receptors” value with S1P receptor was “effectively inhibit four of the five known receptors”. Moreover, the “effect on angiogenesis and tumor growth” value in the assay with tumor transplant model was “inhibit angiogenesis and subsequent growth”.

For `CCCCCCCCCCCCC/C=C/[C@@H](O)[C@@H](N)COP(=O)(O)O` [S1P, Sphingosine 1-phosphate], the “cell viability under tamoxifen with S1P” value is “many viable cells remain” in the assay on MDA-MB-231 cells [1] (serum-free, 6 hours, media supplemented with 1 μM S1P) and “markedly improves survival” in the assay on MDA-MB-231 cells [1] (serum-free, 24 hour, addition of S1P). Also, the cell shape change entry in assay [2] (1 nM S1P) is on record as “minor cell shape changes”; in assay [2] (10 nM S1P) it was “dramatic cell rounding”. For the same molecule, in the assay on MCF-7 cells (co-administration of 500 nM S1P), the “effect on tamoxifen-induced annexin V binding” value is recorded as “attenuated”. For the same molecule, the “increase in migrated cells compared to vehicle control” value in the assay with MDA-MB-231 cells [3] is “nearly two-fold increase”.

For the molecule `CC/C(=C(\c1ccccc1)c1ccc(OCCN(C)C)cc1)c1ccccc1` [Tamoxifen], the cell viability entry is “appear normal” in the assay with MDA-MB-231 cells [1] (1% FBS, 6 hours, 10 μM Tam); “begin to show evidence of cell death” with MDA-MB-231 cells [1] (1% FBS, 6 hours, 20 μM Tam); “most cells remain healthy” in the assay on MDA-MB-231 cells [1] (24 hours, 10 μM Tam, control conditions); “only a few viable cells remain” in the assay on MDA-MB-231 cells [1] (serum-free, 6 hours, 10 μM tamoxifen); “all cells are dead/dying” in the assay on MDA-MB-231 cells [1] (serum-free, 6 hours, 20 μM tamoxifen); “most control cells are lost” with MDA-MB-231 cells [1] (serum-free, 24 hour, 3 μM tamoxifen). Moreover, the cell viability entry in the assay on MDA-MB-231 cells [1] (serum-free, 24 hour, 10 μM tamoxifen) is on record as “cell death is complete”. Besides, in the assay with MCF-7 cells (overnight treatment of MCF-7 cells), the “annexin V binding (apoptotic cell death)” value is “increase in annexin V binding”.

The record behind these values is US8212010B2, “Sphingosine 1-phosphate antagonism” (Expression Drug Designs, LLC, priority 2008, dated 2012).
